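All cell lines were grown in 96-well plates and treated with compound for 48 hours. GI50 marks 50% less growth. TGI is the concentration that stops growth completely.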

Among the test systems are NCI-H23 lung; IGROV1 ovarian; SK-MEL-2 melanoma; K-562 leukemia; SK-OV-3 ovarian; SN12C renal; MDA-MB-231 breast; DU-145 prostate; HS 578T breast; KM12 colon.
Common to all, as to test: inhibition of tumour cell growth, NCI panel, 48 h

As for `C/C(=N\O)c1cccc(Nc2cc(-n3ccnc3)c3ccccc3n2)c1`, the GI50 with NCI-H23 lung was 16700 nM; with IGROV1 ovarian, 4.3 µM; with SK-MEL-2 melanoma, 16.4 µM; with K-562 leukemia, 18.9 µM; in the test with SK-OV-3 ovarian, 20.9 µM; in the test on SN12C renal, 16200 nM. Besides, the GI50 in the test with MDA-MB-231 breast was 6260 nM; in the test with DU-145 prostate, 18.9 µM; in the test on HS 578T breast, 17.2 µM; with KM12 colon, 10.5 µM. Besides, the TGI was 33.6 µM in the test with NCI-H23 lung; 20.5 µM in the test on IGROV1 ovarian; 31.6 µM in the test on SK-MEL-2 melanoma; 73.1 µM in the test with K-562 leukemia; 60.5 µM with SK-OV-3 ovarian; 38.2 µM in the test with SN12C renal. Besides, the TGI in the test with MDA-MB-231 breast was 24 µM; in the test with DU-145 prostate, 35.8 µM; with HS 578T breast, 60.9 µM; with KM12 colon, 31.8 µM.
In the case of `C[C@@H]1Cc2cc(O)ccc2[C@H]2CC[C@]3(C)/C(=C/COCCN(C)C)CC[C@H]3[C@H]12` (tested in a mixture with another compound), the GI50 in the test on NCI-H23 lung was 107 nM; in the test on IGROV1 ovarian, 0.379 µM; in the test on SK-MEL-2 melanoma, 0.323 µM; with K-562 leukemia it was 0.256 µM; in the test with SK-OV-3 ovarian it was 0.228 µM; in the test with SN12C renal, 111 nM. For the same molecule, the GI50 is 833 nM in the test on MDA-MB-231 breast, 0.142 µM in the test with DU-145 prostate, 0.0822 µM in the test with HS 578T breast and 0.309 µM in the test on KM12 colon. The TGI in the test with NCI-H23 lung turned out to be 0.36 µM; with IGROV1 ovarian, 1.21 µM; in the test on SK-MEL-2 melanoma, 0.845 µM; in the test with K-562 leukemia, 0.985 µM; in the test on SK-OV-3 ovarian, 0.62 µM; in the test with SN12C renal, 0.789 µM. For the same molecule, the TGI with MDA-MB-231 breast came to 3.15 µM; in the test with DU-145 prostate, 0.276 µM; in the test with HS 578T breast it was 0.436 µM; with KM12 colon it was 0.895 µM.
With `Oc1cccc2c1NCCC2`, the GI50 in the test on NCI-H23 lung was 103 nM; with IGROV1 ovarian, 0.745 µM; with SK-MEL-2 melanoma it was 0.433 µM; with K-562 leukemia it was 0.141 µM; in the test on SK-OV-3 ovarian, 0.891 µM; in the test with SN12C renal it was 121 nM. Besides, the GI50 is 183 nM in the test on MDA-MB-231 breast, 0.229 µM with DU-145 prostate, 0.183 µM in the test with HS 578T breast and 0.903 µM in the test on KM12 colon. Also, the TGI in the test on NCI-H23 lung is above 37 µM; with IGROV1 ovarian it was above 100 µM; in the test with SK-MEL-2 melanoma it was 2.96 µM; in the test on K-562 leukemia, above 73.9 µM; in the test on SK-OV-3 ovarian, above 100 µM; with SN12C renal, above 76.2 µM. Further, the TGI in the test on MDA-MB-231 breast was above 100 µM; in the test on DU-145 prostate, 54.8 µM; in the test with HS 578T breast it was above 100 µM; in the test on KM12 colon, above 100 µM.
Consider `Oc1cc(-n2cccn2)c(O)cc1-n1cccn1`, for which the TGI is 68.4 µM in the test with NCI-H23 lung; above 75.9 µM in the test with IGROV1 ovarian; above 100 µM in the test with SK-MEL-2 melanoma; 39.3 µM in the test with K-562 leukemia; above 100 µM in the test with SK-OV-3 ovarian; 37.8 µM in the test with SN12C renal. Besides, the TGI was 50.5 µM with MDA-MB-231 breast, above 69.5 µM in the test on DU-145 prostate, above 100 µM in the test with HS 578T breast and above 86.5 µM in the test on KM12 colon.
Consider `COc1ccc(/C=C(\C)[N+](=O)[O-])cc1OC`, for which the GI50 is 2600 nM in the test on NCI-H23 lung; 2.16 µM in the test on IGROV1 ovarian; 1.98 µM with SK-MEL-2 melanoma; 2.17 µM with K-562 leukemia; 13.9 µM with SK-OV-3 ovarian; 2720 nM in the test on SN12C renal. For the same molecule, the GI50 in the test with MDA-MB-231 breast was 2330 nM; with DU-145 prostate it was 1.79 µM; in the test with HS 578T breast it was 3.5 µM; with KM12 colon, 4.49 µM. The TGI in the test on NCI-H23 lung was 7.13 µM; in the test on IGROV1 ovarian, 5.51 µM; in the test on SK-MEL-2 melanoma, 3.83 µM; with K-562 leukemia, above 100 µM; in the test on SK-OV-3 ovarian, 27.4 µM; in the test on SN12C renal, 8.23 µM. In addition, the TGI in the test with MDA-MB-231 breast was 6.21 µM; with DU-145 prostate, 3.22 µM; in the test with HS 578T breast, 15.9 µM; in the test on KM12 colon, 16.4 µM.
For the molecule `CN1CCN(CCCCCN=c2cc3c(=O)n(CCCCCN4CCN(C)CC4)c(=O)c4c(NCCCCCN5CCN(C)CC5)cc5c(O)n(CCCCCN6CCN(C)CC6)c(=O)c2c5c4-3)CC1`, the GI50 in the test on NCI-H23 lung was 6650 nM; in the test on IGROV1 ovarian it was 5.7 µM; in the test on SK-MEL-2 melanoma, 2.69 µM; in the test on K-562 leukemia, 3.62 µM; with SK-OV-3 ovarian, 2.03 µM; in the test with SN12C renal it was 2550 nM. Moreover, the GI50 in the test on MDA-MB-231 breast is 2380 nM; with DU-145 prostate, 3.08 µM; with HS 578T breast, 2.64 µM; with KM12 colon, 2.49 µM. In addition, the TGI was 46.3 µM with NCI-H23 lung; 29.4 µM in the test with IGROV1 ovarian; 7.43 µM in the test with SK-MEL-2 melanoma; above 100 µM in the test with K-562 leukemia; 5.62 µM with SK-OV-3 ovarian; 9.73 µM in the test on SN12C renal. Further, the TGI in the test on MDA-MB-231 breast amounted to 7.22 µM; in the test with DU-145 prostate it was 10.3 µM; with HS 578T breast it was 6.86 µM; in the test with KM12 colon, 8.39 µM.
Take `FC(F)(F)c1cccc(-c2nn3ncccc3c2-c2ccnc(Nc3ccc4c(c3)OCCO4)n2)c1`: the GI50 is 14800 nM in the test with NCI-H23 lung; 5.38 µM in the test on IGROV1 ovarian; above 25 µM in the test on SK-MEL-2 melanoma; 8.75 µM in the test on K-562 leukemia; 8.99 µM in the test with SK-OV-3 ovarian; 11700 nM with SN12C renal. Further, the GI50 in the test on MDA-MB-231 breast was 9020 nM; in the test on DU-145 prostate, 19.2 µM; in the test on HS 578T breast it was 16.4 µM; with KM12 colon, 14.1 µM. In addition, the TGI in the test with NCI-H23 lung is above 25 µM; in the test with IGROV1 ovarian it was above 22.2 µM; with SK-MEL-2 melanoma, above 25 µM; with K-562 leukemia it was above 25 µM; in the test on SK-OV-3 ovarian, above 25 µM; in the test with SN12C renal, above 25 µM. Also, the TGI in the test with MDA-MB-231 breast, with DU-145 prostate, with HS 578T breast and in the test with KM12 colon was above 25 µM each time.
`CCOC(=O)c1cc2c(cc1Cl)SC(=Nc1ccccc1)N(S(=O)(=O)c1ccc(Br)s1)S2(=O)=O`: the GI50 is 18300 nM with NCI-H23 lung; 17.7 µM in the test on IGROV1 ovarian; 15.8 µM with SK-MEL-2 melanoma; 4.73 µM in the test with K-562 leukemia; 34.5 µM in the test on SK-OV-3 ovarian; 17300 nM in the test on SN12C renal. In addition, the GI50 with MDA-MB-231 breast was 14100 nM; in the test on DU-145 prostate, 19 µM; in the test with HS 578T breast, 18.7 µM; with KM12 colon, 17.6 µM. Moreover, the TGI with NCI-H23 lung is 42.2 µM; in the test on IGROV1 ovarian it was 53.4 µM; with SK-MEL-2 melanoma, 43.3 µM; in the test with K-562 leukemia, 21.1 µM; in the test on SK-OV-3 ovarian, above 100 µM; in the test with SN12C renal, 33.9 µM. The TGI was found to be 30.6 µM in the test with MDA-MB-231 breast, 37 µM in the test on DU-145 prostate, 49.4 µM with HS 578T breast and 33.3 µM in the test with KM12 colon.
`Nc1n[nH]c2ccc([C@@H]3Nc4cc5c(cc4[C@H]4C6CCC(C6)[C@@H]34)C(=O)NC5)cc12` (some centres undefined): the GI50 is 431 nM in the test on NCI-H23 lung; 0.417 µM in the test on IGROV1 ovarian; 15 µM with SK-MEL-2 melanoma; 0.131 µM with K-562 leukemia; 0.844 µM in the test with SK-OV-3 ovarian; 473 nM in the test on SN12C renal. For the same molecule, the GI50 in the test on MDA-MB-231 breast is 436 nM; in the test on DU-145 prostate it was 0.416 µM; in the test on HS 578T breast, 0.484 µM; in the test on KM12 colon, 0.472 µM. The TGI with NCI-H23 lung, with IGROV1 ovarian, in the test with SK-MEL-2 melanoma, in the test with K-562 leukemia, with SK-OV-3 ovarian and in the test with SN12C renal was above 100 µM in each case. Besides, the figures for the TGI in the test on DU-145 prostate, with HS 578T breast and with KM12 colon were above 40.7 µM, above 100 µM and above 100 µM, respectively.
Take `Nc1nc(N)c(CCCCc2ccccc2)c(N)n1`: the TGI in the test with NCI-H23 lung, with IGROV1 ovarian, with SK-MEL-2 melanoma, with K-562 leukemia, in the test on SK-OV-3 ovarian and in the test with SN12C renal was above 100 µM each time. The TGI in the test on MDA-MB-231 breast, with DU-145 prostate, in the test with HS 578T breast and in the test with KM12 colon was above 100 µM throughout.
In the case of `Fc1cccc(F)c1C(Nc1nncs1)Nc1nncs1`, the TGI with NCI-H23 lung, in the test with IGROV1 ovarian, in the test with SK-MEL-2 melanoma, with K-562 leukemia, in the test with SK-OV-3 ovarian and in the test on SN12C renal was above 100 µM throughout. For the same molecule, the TGI in the test with MDA-MB-231 breast, in the test with DU-145 prostate, in the test with HS 578T breast and in the test with KM12 colon was above 100 µM throughout.
For the molecule `O=C1C(OCCOc2ccccc2)=C(OCCOc2ccccc2)C(=O)c2ccccc21`, the GI50 was 1820 nM in the test with NCI-H23 lung; above 100 µM with IGROV1 ovarian; 18.6 µM with SK-MEL-2 melanoma; above 100 µM with K-562 leukemia; 23.1 µM in the test on SK-OV-3 ovarian; 4380 nM in the test on SN12C renal. Besides, the GI50 with MDA-MB-231 breast was above 100000 nM; with DU-145 prostate, 7.12 µM; with HS 578T breast it was 8.96 µM; in the test on KM12 colon it was 4.71 µM. Also, the TGI in the test on NCI-H23 lung is 24.3 µM; with IGROV1 ovarian, above 100 µM; in the test on SK-MEL-2 melanoma, above 100 µM; in the test with K-562 leukemia, above 100 µM; with SK-OV-3 ovarian it was above 100 µM; in the test on SN12C renal, 52 µM. The TGI in the test on MDA-MB-231 breast, in the test on DU-145 prostate, with HS 578T breast and in the test with KM12 colon was above 100 µM throughout.

The values above are taken from PubChem BioAssay (NCI).
